In experiment [1] the test system is APRT. In words: Effect of selection media on wild type, APRT-RNAi and APRT knock out cells (survival / cell death). On all read-outs here: key: Survival of the cells in the respective selective conditions is marked +; cell death in the respective selective condition is marked −. Format: cell-based. The settings on record: for Effect of selection medium on cells: RNAi: cells expressing RNAi-constructs directed against APRT; for Effect of selection medium on cells: knock out: cells with APRT inactivated on the chromosomal level; for Effect of selection medium on cells: wild type: gene APRT.

In experiment [2] the test system is thymidine kinase. In words: Effect of selection media on wild type, thymidine kinase-RNAi and thymidine kinase knock out cells (survival / cell death). On all read-outs here: key: Survival of the cells in the respective selective conditions is marked +; cell death in the respective selective condition is marked −. Format: cell-based. Conditions: for Effect of selection medium on cells: RNAi: cells expressing RNAi-constructs directed against thymidine kinase; for Effect of selection medium on cells: knock out: cells with thymidine kinase inactivated on the chromosomal level; for Effect of selection medium on cells: wild type: gene thymidine kinase.

The subject of experiment [3] is DHFR.
Experiment [4] relates to HPRT. Put plainly: Effect of selection media on wild type, HPRT-RNAi and HPRT knock out cells (survival / cell death). Conditions: for Effect of selection medium on cells: RNAi: cells expressing RNAi-constructs directed against HPRT; for Effect of selection medium on cells: knock out: cells with HPRT inactivated on the chromosomal level; for Effect of selection medium on cells: wild type: gene HPRT. Format: cell-based.

Data on eight compounds can be found in patent publication US20080120733A1, “Rnai-Based Method for Selecting Transfected Eukaryotic Cells” (GBF-GESELLSCHAFT FUR BIOTECHNOLOGISCHE FORSCHUNG, priority 2004, published 2008).

Molecules are shown by their SMILES.

On to `Nc1nc(N)c2nc[nH]c2n1` [diaminopurine], for which, in experiment [1], the “Effect of selection medium on cells: RNAi” value is reported as “+”, the “Effect of selection medium on cells: knock out” value is “+” and the “Effect of selection medium on cells: wild type” value is given as “−”.
For the compound `Nc1ncnc2nn[nH]c12` [8-azaadenine], in experiment [1], the “Effect of selection medium on cells: RNAi” value was “+”, the “Effect of selection medium on cells: knock out” value is “+” and the “Effect of selection medium on cells: wild type” value is recorded as “−”.
For `O=c1[nH]c(=O)n([C@H]2C[C@H](O)[C@@H](CO)O2)cc1Br` [bromodesoxyuridine], in experiment [2], the “Effect of selection medium on cells: RNAi” value was “+”, the “Effect of selection medium on cells: knock out” value was “+” and the “Effect of selection medium on cells: wild type” value was “−”.
Regarding `CN(Cc1cnc2nc(N)nc(N)c2n1)c1ccc(C(=O)N[C@@H](CCC(=O)O)C(=O)O)cc1` [methotrexate], the “Effect of selection medium on cells: RNAi” value in experiment [3] (cells expressing RNAi-constructs directed against DHFR) is “−”. In addition, in experiment [3] (cells with DHFR inactivated on the chromosomal level), the “Effect of selection medium on cells: knock out” value is reported as “−”. For the same compound, the “Effect of selection medium on cells: wild type” value in experiment [3] (wild type cells, gene DHFR) was “+”.
Turning to `Nc1nc2c(nnn2[C@@H]2O[C@H](CO)[C@@H](O)[C@H]2O)c(=O)[nH]1` [8-azaguanosine], in experiment [4], the “Effect of selection medium on cells: RNAi” value is given as “+”, the “Effect of selection medium on cells: knock out” value was “+” and the “Effect of selection medium on cells: wild type” value is recorded as “−”.
As for `Nc1nc2c(ncn2[C@@H]2O[C@H](CO)[C@@H](O)[C@H]2O)c(=S)[nH]1` [6-thioguanosine], in experiment [4], the “Effect of selection medium on cells: RNAi” value is “+”, the “Effect of selection medium on cells: knock out” value was “+” and the “Effect of selection medium on cells: wild type” value is listed as “−”.
On to `O=c1[nH]c(=O)n([C@H]2C[C@H](O)[C@@H](CO)O2)cc1C(F)(F)F` [trifuorothymidine], for which, in experiment [2], the “Effect of selection medium on cells: RNAi” value is on record as “+”, the “Effect of selection medium on cells: knock out” value is listed as “+” and the “Effect of selection medium on cells: wild type” value is recorded as “−”.
As to `Nc1nc(F)nc2nc[nH]c12` [2-fluoroadenine], in experiment [1], the “Effect of selection medium on cells: RNAi” value is given as “+”, the “Effect of selection medium on cells: knock out” value is recorded as “+” and the “Effect of selection medium on cells: wild type” value was “−”.
